Reference: US20140296223A1, “METHOD FOR REGULATING SKIN PIGMENTATION” (THE GENERAL HOSPITAL CORPORATION, priority 2011, published 2014)

Tests used:
[1] = tested on: Microphthalmia Transcription Factor (MITF); test: TRPM1-luciferase reporter screen for MITF antagonists in Skme15 melanoma cells; format: cell-based, human; details: for IC50: IC50 (described formally as qAC50), half-maximal suppression dose, unit inferred, text says potencies around 1 uM; for Conc. At Maximal Activity / Maximal Activity: dose titration; for Conc. At Maximal Activity: unit not given, in M (unit assumed); for Maximal Activity: maximal suppression of TRPM1-luciferase at any dose; for Z-Score: screen, suppression of TRPM1-luciferase activity, Skme15 cells
From the text: In order to carry out a successful MITF antagonist screen, the inventors utilized a TRPM1-luciferase reporter. […] Therefore, the TRPM1-luciferase reporter stably integrated into melanoma cells is effective for the screening assay. The use of melanoma cells, while less perfectly relevant than primary human melanocytes, afforded the advantages of speed and reproducibility for the screen.
In order to engineer a screen which broadly suppress MITF activity either by suppression of MITF expression or by inhibition of MITF activity, the inventors utilized a luciferase reporter containing the promoter of a strong direct transcriptional target of MITF, i.e., TRPM1 gene, the inventors have identified the active ingredients having the ability of inhibiting the expression or activation of Microphthalmia Transcription Factor (MITF) for medical or esthetic benefit. The inventors have previously identified the TRPM1 gene (also called “Melastatin”) as a direct target of MITF, which contains numerous MITF binding sites, and which directly responds in potent fashion to MITF overexpression (Miller A J, Du J, Rowan S, Hershey C L, Widlund H R, Fisher D E: Transcriptional regulation of the melanoma prognostic marker melastatin (TRPM1) by MITF in melanocytes and melanoma, Cancer Res 2004, 64:509-516). TRPM1 expression also correlates closely to MITF expression within human melanoma cell lines, as well as in clinical pigmented lesions (nevi and melanomas).
The TRPM1 promoter was ligated to the luciferase gene and inserted into a retroviral vector as well as a lentiviral vector. The lentiviral vector was used to infect primary human melanocytes, which then was subjected to a primary screen using the Broad Chemical Genetics core screening facility, and its natural products/extracts libraries. As backup, the retroviral vector was used to stably integrate into the genome of melanoma cells, which can be used for the identical small molecule screen. Screen optimization was carried out using forskolin and MSH as positive control small molecules (which upregulate cAMP and MITF expression (D'Orazio J A, Nobuhisa T, Cui R, Arya M, Spry M, Wakamatsu K, Igras V, Kunisada T, Granter S R, Nishimura E K, Ito S, Fisher D E: Topical drug rescue strategy and skin protection based on the role of Mc1r in UV-induced tanning, Nature 2006, 443:340-344)). Small molecules which suppress MSH induced TRPM1-luciferase without altering cell numbers or viability, represent initial “hits” in this screen. Negative control includes a constitutive luciferase vector within the same cells (eg driven by a constitutive promoter such as thymidine kinase promoter), to control for nonspecific inhibitors of basal transcriptional machinery-something which would otherwise be assessed in detail during secondary/tertiary analyses of candidate hits.
The human melanoma cell line Skme15 was utilized due to the advantageous growth properties as well as the inventors' prior experience that Skme15 expresses a typical level of MITF protein. […] Therefore, an integrated TRPM1-luciferase reporter was generated, and the subsequent cells were cloned twice (serially) to assure purity of the reporter cell population. Cells were maintained in drug selection to assure maintenance of the luciferase reporter (when drug was omitted, eventual loss of the luciferase signal was observed). Following re-cloning, distinct isolates were selected for further use on the basis of clonogenic growth on 384 well plates, as required for the small molecule screen. A positive control for suppression of TRPM1-luciferase signal utilized: a lentivirus encoding shRNA against MITF. […] The day-to-day variability in plating efficiency was analyzed, and found very high reproducibility in the line which was selected for further use in the screen.
The screen was carried out with a library from the Broad Institute comprising a mixture of natural products, known bioactives, and additional compounds (a total of about 13,000 compounds). […]

Skme15 = test: Toxicity with fluorescence viability probe (CellTiter-Fluo Cell Viability Assay); format: cell-based, human; details: composite of the variation between drug-treated and control divided by the standard error
Protocol: Although the shape of the dose-response can vary among hits, the inventors chose to include all candidates which produce dose-dependent effects. The fourth criterion which was determined is the IC50 (described formally as qAC50) which represents the half-maximal suppression dose. Most of the candidate hits resided in the high nanomolar to low micromolar range by this criterion (all of these validation data are listed in Table 1). The fifth criterion was maximal suppression (at any dose), which represented the magnitude of suppression which was attainable regardless of the dose required to achieve it. […] The sixth criterion to be determined is the Log P partition coefficient, which is a predictor of lipophilicity. For this, the inventors have used the method of Ghose and Crippen to calculate the predicted octanol-water partition coefficient (J. Comp. Chem. 9, 80(1988)). While this is only an estimate of potential skin penetration, the analysis was carried out because it helps in prioritizing likelihood of topical effectiveness, in theory. The seventh criterion was an analysis of toxicity utilizing a fluorescence viability probe (CellTiter-Fluo™ Cell Viability Assay (Promega)). Interpretation of this endpoint is complicated by the fact that it represents a composite of the variation between drug-treated and control divided by the standard error The results shown in Table 1 indicate 34 candidate molecules which satisfied all of the criteria outlined above. […] Most of their potencies ranged slightly below or above 1 uM. While the lipophilicity scores remain imperfect predictors of skin penetration capability. However, numbers of >3 can be more likely to penetrate.

Structure (SMILES)	IC50 [1] [µM]	Conc. At Maximal Activity [1]	Maximal Activity [1]	Z-Score [1]	Viability z-score (treated minus control, divided by standard error) (Skme15)
Cc1ccc(C23C[C@@H]4C[C@@H](CC(CN)(C4)C2)C3)cc1C [1-[(1S,3R,5R,7S)-3-(3,4-dimethylphenyl)adamantan-1-yl]methanamine]	2.48	6.00E−06	−149	−10.8562	−1.015
COc1ccc2c(c1)OC1COc3cc(OC)c(OC)cc3C1C2=O (stereo not shown) [2,3,9-trimethoxy-6a,12a-dihydrochromoeo[3,4-b]chromen-12(6H)-one]	5.38	1.20E−05	−320.4	−9.245	−4.2731
COc1ccc([N+](=O)[O-])cc1NC(=O)COc1ccc(C(C)(C)C)cc1Br [2-(2-bromo-4-tert-butylphenoxy)-N-(2-methoxy-5-nitrophenyl)acetamide]	–	–	–	−12.0562	−1.6406
Cc1oc2c(c1C(=O)N1CCC(C)CC1)C(=O)c1ccccc1C2=O [2-methyl-3-[(4-methylpiperidin-1-yl)carbonyl]naphtho[2,3-b]furan-4,9-dione]	–	–	–	−9.924	0.1575
O=C(O)CCSc1nc2ccccc2s1 [3-(1,3-benzothiazol-2-ylthio)propanoic acid]	–	–	–	−9.79	−1.5092
O=C(O)c1cccc(COc2ccc(CO)cc2Cl)c1 [3-{[2-chloro-4-(hydroxymethyl)phenoxy]methyl}benzoic acid]	–	–	–	−9.909	−1.5092
COc1cc(CO)ccc1OCc1cccc(C(=O)O)c1 [3-{[4-(hydroxymethyl)-2-methoxyphenoxy]methyl}benzoic acid]	–	–	–	−10.9296	−1.6406
Cc1ccc(OCC(=O)Nc2cccc(C(=O)O)c2)c(Br)c1 [3-{[(2-bromo-4-methylphenoxy)acetyl]amino}benzoic acid]	–	–	–	−10.0837	−1.5092
CCOc1ccc(OCC(=O)Nc2cccc(C(=O)O)c2)cc1 [3-{[(4-ethoxyphenoxy)acetyl]amino}benzoic acid]	–	–	–	−9.9	−1.5092
COc1cc(C(=O)Nc2cc(-c3nc4ncccc4o3)ccc2C)ccc1OCc1ccc(Cl)cc1 [4-[(4-chlorobenzyl)oxy]-3-methoxy-N-(2-methyl-5-[1,3]oxazolo[4,5-b]pyridin-2-ylphenyl)benzamide]	–	–	–	−9.256	–
Clc1ccc(C2=NN=C(N3CCCC3)SC2)cc1 [5-(4-chlorophenyl)-2-pyrrolidin-1-yl-6H-1,3,4-thiadiazine]	–	–	–	−9.961	−0.2442
CC(C)(C)c1ccc(C(=O)N2CCN(c3ccc([N+](=O)[O-])c(NCc4cccnc4)c3)CC2)cc1 [5-[4-(4-tert-butylbenzoyl)piperazin-1-yl]-2-nitro-N-(pyridin-3-ylmethyl)aniline]	–	–	–	−9.588	−0.8893
Cc1ccc(C)c(C(Nc2ccccn2)c2cc(Cl)c3cccnc3c2O)c1 (stereo not shown) [5-chloro-7-[(2,5-dimethylphenyl)(pyridin-2-ylamino)methyl]quinolin-8-ol]	–	–	–	−8.461	−0.8893
Oc1c(C(Nc2ccccn2)c2c(F)cccc2Cl)cc(Cl)c2cccnc12 (stereo not shown) [5-chloro-7-[(2-chloro-6-fluorophenyl)(pyridin-2-ylamino)methyl]quinolin-8-ol]	–	–	–	−9.327	−2.226
c1ccc(-c2cnc3nonc3n2)cc1 [5-phenyl[1,2,5]oxadiazolo[3,4-b]pyrazine]	–	–	–	−9.989	−0.0206
O=c1[nH]c(=O)n(Cc2ccco2)c2c1C(C(F)(F)F)(C(F)(F)F)N=C(c1ccc(F)cc1)N2 [7-(4-fluorophenyl)-1-(2-furylmethyl)-5,5-bis(trifluoromethyl)-5,8-dihydropyrimido[4,5-d]pyrimidine-2,4(1H,3H)-dione]	–	–	–	−8.791	−2.0352
CC(C)(C)[C@H]1CC[C@@]2(CC1)[C@@H](C#N)[C@]2(C#N)C(=O)c1ccccc1 [(1S,2R,3S,6S)-1-benzoyl-6-tert-butylspiro[2.5]octane-1,2-dicarbonitrile]	5.69	1.95E−05	−274.1	−11.0899	0.4824
CCOC(=O)c1c(C)n(Cc2ccccc2)c2ccc(OCC(O)CNC(C)(C)C)cc12 (stereo not shown) [Ethyl-1-benzyl-5-[3-(tert-butylamino)-2-hydroxypropoxy]-2-methyl-1H-indole-3-carboxylate]	–	–	–	−7.844	−2.519
CCOC(=O)COc1cccc(-c2nc3ccccc3s2)c1 [Ethyl-[3-(1,3-benzothiazol-2-yl)phenoxy]acetate]	–	–	–	−9.663	−0.0206
Cc1cccc(-c2nnc(SCC(=O)Nc3ccccc3F)o2)c1 [N-(2-fluorophenyl)-2-{[5-(3-methylphenyl)-1,3,4-oxadiazol-2-yl]thio}acetamide]	–	–	–	−10.7661	−0.0206
O=C(NCCCc1ccccc1)N1c2ccccc2Sc2ccccc21 [N-(3-phenylpropyl)-10H-phenothiazine-10-carboxamide]	–	–	–	−9.495	−4.128
O=C(CSc1nc2cc([N+](=O)[O-])ccc2[nH]1)Nc1cc(C(F)(F)F)cc(C(F)(F)F)c1 [N-[3,5-bis(trifluoromethyl)phenyl]-2-[(5-nitro-1H-benzimidazol-2-yl)thio]acetamide]	–	–	–	−10.0284	–
Cc1ccc2nc(-c3ccc(NC(=O)CSc4nnc(C)s4)cc3)sc2c1 [N-[4-(6-methyl-1,3-benzothiazol-2-yl)phenyl]-2-[(5-methyl-1,3,4-thiadiazol-2-yl)thio]acetamide]	–	–	–	−9.3543	1.032
COc1ccc(OC)c(S(=O)(=O)N2CCC(C(=O)Nc3ccc(Cl)c(C(F)(F)F)c3)CC2)c1 [N-[4-chloro-3-(trifluoromethyl)phenyl]-1-[(2,5-dimethoxyphenyl)sulfonyl]piperidine-4-carboxamide]	–	–	–	−9.871	−0.2442
